Test results: patent US6303596A, “Use of taurolidine for treatment of leukemias” (priority 2000, dated 2001)

What was measured:
Format in all cases: cell-based, human
[1] = test system: HL-60; experiment: growth rate after taurolidine treatment, HL-60
Procedure: (§1) FIGS. 7A and 7B depict cell viability and growth rates for HL-60 cell line following taurolidine treatment, in terms of % trypan blue negative cells and % cell number, respectively. Cells were treated with various concentrations of taurolidine for 4 hours in AIM-V+0.01% BCS. After aliquots were collected for LDH assay, the remainder of the culture was rinsed in HBSS and resuspended in RPMI+10% BCS without taurolidine. Counts of trypan blue-negative cells (FIG. 7A), and total cell number (FIG. 7B), were recorded daily thereafter (with the measurement at Day 1 being made immediately after the 4 hour taurolidine treatment). Conditions were: no treatment (open circles); 25 μg/ml taurolidine (closed circles); 50 μg/ml taurolidine (open squares); 100 μg/ml taurolidine (closed squares); and vehicle alone (closed triangles). Doubling times were determined under each condition, and expressed as a percentage of the rate of doubling of untreated cells. These values are located to the right of the growth curves in (FIG. 7B). Cells were subcultured when they reached a concentration of 6×10^5 cells/ml. Data are mean±SEM of three experiments.
(§2) In these experiments, integrity of cell membranes following taurolidine treatment was assessed by exclusion of trypan blue and by measuring the release of LDH in MM6, K-562, HL-60, and REH cells. Since BCS contains significant amounts of LDH, these experiments were conducted on cells cultured in AIM-V+0.01% BCS. […] A parallel aliquot of cells was lysed by three cycles of freeze/thaw and the quantity of LDH released was taken to be 100%. […]
HL-60 cells treated with 50 μl taurolidine. In these samples, LDH present in the culture medium was 8.3±2.3% of that released by completely lysed cells, compared with 2.3±0.8% measured in control cultures. […] After 4 hour treatment, cells were rinsed and returned to growth medium and monitored for viability and growth over the following 3 days. […]
^b Growth rate was measured over three days following treatment.

[2] = test system: HL-60 cells; experiment: trypan blue exclusion, HL-60; details: HL-60, 25 μg/ml taurolidine, versus MM6, K562, Jurkat
Procedure: as §1, with “Conditions were: no treatment (open circles); 25 μg/ml taurolidine (closed circles); 50 μg/ml taurolidine (open squares); 100 μg/ml taurolidine (closed squares); and vehicle alone (closed triangles).” left out, “These values are located to the right of the growth curves in (FIG. 7B). Cells were subcultured when they reached a concentration of 6×10^5 cells/ml. Data are mean±SEM of three experiments.” left out
as §2, with “cells.” for “cells. Since BCS contains significant amounts of LDH, these experiments were conducted on cells cultured in AIM-V+0.01% BCS.”
(§3) HL-60 cells treated with 50 μl taurolidine. In these samples, LDH present in the culture medium was 8.3±2.3% of that released by completely lysed cells, compared with 2.3±0.8% measured in control cultures. […]

[3] = test system: MM6 cells; experiment: growth rate after taurolidine treatment, MM6
Procedure: FIG. 4A and FIG. 4B are graphs depicting cell viability and growth rates following taurolidine treatment as determined by assay procedures. MM6 cells were treated with taurolidine as described in FIG. 3. After aliquots were collected for the lactate dehydrogenase (LDH) assay, the remainder of the culture was rinsed in Hank's balanced salt solution (HBSS) and resuspended in RPMI+10% BCS without taurolidine. Counts of trypan blue-negative cells represented in FIG. 4A and total cell number represented in FIG. 4B were recorded daily thereafter (with the measurement at Day 1 being made immediately after the four hour taurolidine treatment). […]
FIGS. 5A and 5B depict cell viability and growth rates for MM6 cell line following taurolidine treatment, in terms of % trypan blue negative cells and % cell number, respectively. […] Counts of trypan blue-negative cells (FIG. 5A), and total cell number (FIG. 5B), were recorded daily thereafter (with the measurement at Day 1 being made immediately after the 4 hour taurolidine treatment). […] Doubling times were determined under each condition, and expressed as a percentage of the rate of doubling of untreated cells. […]
In these experiments, integrity of cell membranes following taurolidine treatment was assessed by exclusion of trypan blue and by measuring the release of LDH in MM6, K-562, HL-60, and REH cells. […]

[4] = test system: REH cells; experiment: trypan blue exclusion, REH; details: 25 μg/ml taurolidine, versus MM6, K562, Jurkat
Procedure: FIGS. 8A and 8B depict cell viability and growth rates for REH cell line following taurolidine treatment, in terms of % trypan blue negative cells and % cell number, respectively. Cells were treated with various concentrations of taurolidine for 4 hours in AIM-V+0.01% BCS. After aliquots were collected for LDH assay, the remainder of the culture was rinsed in HBSS and resuspended in RPMI+10% BCS without taurolidine. Counts of trypan blue-negative cells (FIG. 8A), and total cell number (FIG. 8B), were recorded daily thereafter (with the measurement at Day 1 being made immediately after the 4 hour taurolidine treatment). […] Doubling times were determined under each condition, and expressed as a percentage of the rate of doubling of untreated cells. […]
as §2, with “cells.” for “cells. Since BCS contains significant amounts of LDH, these experiments were conducted on cells cultured in AIM-V+0.01% BCS.”
as §3

O=S1(=O)CCN(CN2CCS(=O)(=O)NC2)CN1 [taurolidine, 4,4'-methylenebis(perhydro-1,2,4-thiadiazin 1,1-dioxide)]
sensitivity of cell growth among cell lines ([1]; HL-60): most inhibited
activity at 50 µg/mL ([1]; Homo sapiens, 72 h, HL-60, 50 μg/ml for 4 h, growth over three days, read-out: growth rate (% of control)): 0%
activity at 100 µg/mL ([1]; Homo sapiens, 72 h, HL-60, 100 μg/ml for 4 h, growth over three days, read-out: growth rate (% of control)): 3%
trypan blue staining after treatment, sensitivity [2]: more sensitive
growth rate after return to growth medium ([3]; MM6, 25 μg/ml taurolidine for 4 h): growth rates similar to that observed with untreated cells
growth after return to growth medium ([3]; MM6, 50 μg/ml taurolidine for 4 h): failed to grow
trypan blue staining after treatment, sensitivity [4]: more sensitive
